{
  "source": "patent US7879795B2",
  "about": "“Enhancement of tigecycline potency using efflux pump inhibitors” (Mpex Pharmaceuticals, Inc., priority 2004, dated 2011)",
  "key": {"[1]": {"experiment": "Tissue levels after 5 day repeated dosing in rat", "format": "in vivo", "settings": "20 mg/kg twice daily for 5 days, 6 hours after last dose", "experimental": "The decreased tissue accumulation of compound 3 vis-a-vis 1 was confirmed in a multi-dose experiment. Rats received 20 mg/kg of either compound twice daily for 5 days. Animal were sacrificed 6 hours after the last dose and levels of compounds in kidneys, liver and lung were determined. FIG. 14 depicts the measured tissue levels. Approximately 100-fold, 60-fold, and 10-fold less compound 3 accumulated in kidney, liver and lung respectively, as compared to compound 1."}, "[2]": {"test_system": "laboratory strains of P. aeruginosa", "experiment": "Tigecycline susceptibility of laboratory strains of P. aeruginosa over-expressing or lacking efflux pumps", "format": "cell-based", "experimental": "(§1) The ability of compound 21 to increase susceptibility to tigecycline was also assessed. The tigecycline potentiating activity of compound 21 was assessed by the checkerboard assay (Antimicrobial Combinations, Antibiotics in Laboratory Medicine, ed. Victor Lorian, M.D., Fourth edition, 1996, pp 333-338, which is incorporated herein by reference in its entirety) using a broth micro-dilution method performed as recommended by the CSLI (Clinical and Laboratory Standards Institute, formerly NCCLS) guidelines (National Committee for Clinical Laboratory Standards 2003. Methods for Dilution Antimicrobial Susceptibility Tests for Bacteria That Grow Aerobically—Sixth Edition; Approved Standard. NCCLS Document M7-A6, Vol 20 No. 2). In this assay, multiple dilutions of the two drugs, compound 21 and tigecycline, were tested alone and in combination, at concentrations equal to, above and below their respective minimal inhibitory concentrations (MICs). […] The stock solution was further diluted in Mueller Hinton Broth (MHB). Stock solutions were stored at −80° C.\n(§2) The checkerboard assay was performed in microtiter plates. Tigecycline was diluted in the x axis, each column containing a single concentration of tigecycline. Compound 21 was diluted in the y axis, each row containing an equal concentration of the EPI. […] The assay was performed in MHB with a final bacterial inoculum of 5×10^5 CFU/ml (from an early-log phase culture). The microtiter plates were incubated for 20 hours at 35° C. and then read using a microtiter plate reader (Molecular Devices) at 650 nm, as well as by visual observation using a microtiter plate-reading mirror."}, "[3]": {"test_system": "PAM 1323, mexZ, MexXY-OprM over-expressed, MexAB-OprM low level", "experiment": "microbe, parasite or virus in culture", "format": "cell-based, P. aeruginosa", "design": "Tigecycline MIC in the presence of Compound 21: unit not given here", "settings": "PAM 1323", "experimental": "as §1, §2"}, "[4]": {"test_system": "PAM 1723, MexAB-OprM over-expressed, ΔMexCD-OprJ ΔMexEF-OprN", "experiment": "microbe, parasite or virus in culture", "format": "cell-based, P. aeruginosa", "design": "Tigecycline MIC in the presence of Compound 21: unit not given here", "settings": "PAM 1723", "experimental": "as §1, §2"}, "[5]": {"test_system": "PAM 1738, MexCD-OprJ over-expressed, ΔMexAB-OprM ΔMexEF-OprN", "experiment": "microbe, parasite or virus in culture", "format": "cell-based, P. aeruginosa", "design": "Tigecycline MIC in the presence of Compound 21: unit not given here", "settings": "PAM 1738", "experimental": "as §1, §2"}, "[6]": {"test_system": "PAM 2466, mexR1, MexAB-OprM and MexXY-OprM over-expressed", "experiment": "microbe, parasite or virus in culture", "format": "cell-based, P. aeruginosa", "design": "Tigecycline MIC in the presence of Compound 21: unit not given here", "settings": "PAM 2466", "experimental": "as §1, §2"}, "[7]": {"test_system": "PAM 1753, MexEF-OprN over-expressed", "experiment": "Tigecycline potentiation checkerboard assay, PAM 1753", "format": "cell-based, P. aeruginosa", "design": "Tigecycline MIC in the presence of Compound 21: unit not given here", "settings": "PAM 1753", "experimental": "as §1, §2"}, "[8]": {"test_system": "PAM 1626, Four pumps non-functional", "experiment": "Tigecycline potentiation checkerboard assay, PAM 1626", "format": "cell-based, P. aeruginosa", "design": "Tigecycline MIC in the presence of Compound 21: unit not given here", "settings": "PAM 1626", "experimental": "as §1, §2"}, "[9]": {"test_system": "Enterobacter aerogenes 19", "experiment": "Antibiotic MIC with fixed concentration of compound 21, Enterobacter aerogenes 19", "format": "cell-based"}, "Klebsiella pneumonia 79": {"test_system": "Klebsiella pneumonia 79", "experiment": "Antibiotic MIC with fixed concentration of compound 21, Klebsiella pneumonia 79", "format": "cell-based", "experimental": "(§3) To further characterize the clinical potential of tigecycline/EPI combinations, the microbiological activity of tigecycline in combination with compound 21 was investigated using clinical isolates of P. aeruginosa and other gram-negative bacteria. In several experiments, described below, the impact of a fixed concentration of compound 21 (2.5 μg/ml) on susceptibility to tigecycline was determined.\n(§4) The impact of compound 21 on the activity of tigecycline against representative members of Enterobacteriacaea was also tested."}, "Citrobacter freundii 13": {"test_system": "Citrobacter freundii 13", "experiment": "Antibiotic MIC with fixed concentration of compound 21, Citrobacter freundii 13", "format": "cell-based", "experimental": "as §3, §4"}, "[10]": {"experiment": "Solubility in water (stock solutions)", "settings": "stock solutions 10 mg/ml"}, "[11]": {"settings": "azithromycin MIC with compound 21"}, "[12]": {"settings": "levofloxacin MIC with compound 21 at […]"}, "[13]": {"settings": "tigecycline MIC with compound 21 at […]"}},
  "data": [
    {"smiles": "NCCC[C@H](N)C(=O)N[C@H](CCc1ccccc1)C(=O)Nc1cnc2ccccc2c1", "note": "[Compound 3, 2-(S),5-Diamino-pentanoic acid [3-phenyl-1-(R)-(quinolin-3-ylcarbamoyl)-propyl]-amide]", "values": [
      {"measurement": "less compound 3 accumulated as compared to compound 1", "setting": "[1]; rat kidney", "result": "Approximately 100 fold"},
      {"measurement": "less compound 3 accumulated as compared to compound 1", "setting": "[1]; rat liver", "result": "~60", "unit": "fold"},
      {"measurement": "less compound 3 accumulated as compared to compound 1", "setting": "[1]; rat lung", "result": "~10", "unit": "fold"}
    ]},
    {"smiles": "NCCC[C@H](N)C(=O)N[C@H](Cc1ccc(C(F)(F)F)cc1)C(=O)Nc1cnc2ccccc2c1", "note": "[Compound 21, 2-(S),5-Diamino-pentanoic acid [1-(R)-(quinolin-3-ylcarbamoyl)-2-(4-trifluoromethyl-phenyl)-ethyl]amide]", "values": [
      {"measurement": "effect on activity of tigecycline against strains expressing efflux pumps", "setting": "[2]; in words", "result": "increases activity to tigecycline"},
      {"measurement": "concentration required to completely inhibit the efflux pumps", "setting": "[2]; tigecycline checkerboard", "result": 2.5, "unit": "µg/mL"},
      {"measurement": "Tigecycline MIC in the presence of Compound 21", "setting": "[3]; Compound 21 0.625 μg/ml", "result": 2},
      {"measurement": "Tigecycline MIC in the presence of Compound 21", "setting": "[3]; Compound 21 1.25 μg/ml", "result": 1},
      {"measurement": "Tigecycline MIC in the presence of Compound 21", "setting": "[3]; Compound 21 5 μg/ml", "result": 0.5},
      {"measurement": "Tigecycline MIC in the presence of Compound 21", "setting": "[3]; Compound 21 10 μg/ml", "result": 0.5},
      {"measurement": "Tigecycline MIC in the presence of Compound 21", "setting": "[3]; Compound 21 20 μg/ml", "result": 0.5},
      {"measurement": "Tigecycline MIC in the presence of Compound 21", "setting": "[3]; Compound 21 40 μg/ml", "result": 0.5},
      {"measurement": "Tigecycline MIC in the presence of Compound 21", "setting": "[3]; Compound 21 […]", "result": 0.5},
      {"measurement": "Tigecycline MIC in the presence of Compound 21", "setting": "[4]; Compound 21 0.625 μg/ml", "result": 4},
      {"measurement": "Tigecycline MIC in the presence of Compound 21", "setting": "[4]; Compound 21 1.25 μg/ml", "result": 2},
      {"measurement": "Tigecycline MIC in the presence of Compound 21", "setting": "[4]; Compound 21 5 μg/ml", "result": 0.5},
      {"measurement": "Tigecycline MIC in the presence of Compound 21", "setting": "[4]; Compound 21 10 μg/ml", "result": 0.5},
      {"measurement": "Tigecycline MIC in the presence of Compound 21", "setting": "[4]; Compound 21 20 μg/ml", "result": 0.5},
      {"measurement": "Tigecycline MIC in the presence of Compound 21", "setting": "[4]; Compound 21 40 μg/ml", "result": 0.5},
      {"measurement": "Tigecycline MIC in the presence of Compound 21", "setting": "[4]; Compound 21 […]", "result": 0.5},
      {"measurement": "Tigecycline MIC in the presence of Compound 21", "setting": "[5]; Compound 21 0.625 μg/ml", "result": 1},
      {"measurement": "Tigecycline MIC in the presence of Compound 21", "setting": "[5]; Compound 21 1.25 μg/ml", "result": 0.5},
      {"measurement": "Tigecycline MIC in the presence of Compound 21", "setting": "[5]; Compound 21 5 μg/ml", "result": 0.25},
      {"measurement": "Tigecycline MIC in the presence of Compound 21", "setting": "[5]; Compound 21 10 μg/ml", "result": 0.25},
      {"measurement": "Tigecycline MIC in the presence of Compound 21", "setting": "[5]; Compound 21 20 μg/ml", "result": 0.25},
      {"measurement": "Tigecycline MIC in the presence of Compound 21", "setting": "[5]; Compound 21 40 μg/ml", "result": 0.25},
      {"measurement": "Tigecycline MIC in the presence of Compound 21", "setting": "[5]; Compound 21 […]", "result": 0.25},
      {"measurement": "Tigecycline MIC in the presence of Compound 21", "setting": "[6]; Compound 21 0.625 μg/ml", "result": 4},
      {"measurement": "Tigecycline MIC in the presence of Compound 21", "setting": "[6]; Compound 21 1.25 μg/ml", "result": 2},
      {"measurement": "Tigecycline MIC in the presence of Compound 21", "setting": "[6]; Compound 21 5 μg/ml", "result": 0.5},
      {"measurement": "Tigecycline MIC in the presence of Compound 21", "setting": "[6]; Compound 21 10 μg/ml", "result": 0.5},
      {"measurement": "Tigecycline MIC in the presence of Compound 21", "setting": "[6]; Compound 21 20 μg/ml", "result": 0.5},
      {"measurement": "Tigecycline MIC in the presence of Compound 21", "setting": "[6]; Compound 21 40 μg/ml", "result": 0.5},
      {"measurement": "Tigecycline MIC in the presence of Compound 21", "setting": "[6]; Compound 21 […]", "result": 0.5},
      {"measurement": "Tigecycline MIC in the presence of Compound 21", "setting": "[7]; Compound 21 0.625 μg/ml", "result": 1},
      {"measurement": "Tigecycline MIC in the presence of Compound 21", "setting": "[7]; Compound 21 1.25 μg/ml", "result": 1},
      {"measurement": "Tigecycline MIC in the presence of Compound 21", "setting": "[7]; Compound 21 5 μg/ml", "result": 0.25},
      {"measurement": "Tigecycline MIC in the presence of Compound 21", "setting": "[7]; Compound 21 10 μg/ml", "result": 0.25},
      {"measurement": "Tigecycline MIC in the presence of Compound 21", "setting": "[7]; Compound 21 20 μg/ml", "result": 0.25},
      {"measurement": "Tigecycline MIC in the presence of Compound 21", "setting": "[7]; Compound 21 40 μg/ml", "result": 0.25},
      {"measurement": "Tigecycline MIC in the presence of Compound 21", "setting": "[7]; Compound 21 […]", "result": 0.25},
      {"measurement": "Tigecycline MIC in the presence of Compound 21", "setting": "[8]; Compound 21 0.625 μg/ml", "result": 0.25},
      {"measurement": "Tigecycline MIC in the presence of Compound 21", "setting": "[8]; Compound 21 1.25 μg/ml", "result": 0.25},
      {"measurement": "Tigecycline MIC in the presence of Compound 21", "setting": "[8]; Compound 21 5 μg/ml", "result": 0.25},
      {"measurement": "Tigecycline MIC in the presence of Compound 21", "setting": "[8]; Compound 21 10 μg/ml", "result": 0.25},
      {"measurement": "Tigecycline MIC in the presence of Compound 21", "setting": "[8]; Compound 21 20 μg/ml", "result": 0.5},
      {"measurement": "Tigecycline MIC in the presence of Compound 21", "setting": "[8]; Compound 21 […]", "result": 0.25},
      {"measurement": "Azi + EPI (MIC)", "setting": "[9]; [11]", "result": 0.5},
      {"measurement": "Levo + EPI at […] (MIC)", "setting": "[9]; [12]", "result": 16},
      {"measurement": "Tig + EPI at […] (MIC)", "setting": "[9]; [13]", "result": 0.25},
      {"measurement": "Azi + EPI (MIC)", "setting": "Klebsiella pneumonia 79; [11]", "result": 0.25},
      {"measurement": "Levo + EPI at […] (MIC)", "setting": "Klebsiella pneumonia 79; [12]", "result": 4},
      {"measurement": "Tig + EPI at […] (MIC)", "setting": "Klebsiella pneumonia 79; [13]", "result": 0.25},
      {"measurement": "Azi + EPI (MIC)", "setting": "Citrobacter freundii 13; [11]", "result": "≦0.125"},
      {"measurement": "Levo + EPI at […] (MIC)", "setting": "Citrobacter freundii 13; [12]", "result": 8},
      {"measurement": "Tig + EPI at […] (MIC)", "setting": "Citrobacter freundii 13; [13]", "result": 0.125},
      {"measurement": "solubility in water", "setting": "[10]", "result": "readily soluble in water"}
    ]}
  ]
}
